What was measured:
PICV = type: cell-based
measles virus (MV) = type: cell-based
R18-labeled PICV = type: biochemical
Tamiami virus (TAMV) = type: cell-based
[1] = tested on: POPC LUVs or purified PICV
[2] = tested on: herpes simplex virus-1 (HSV-1, McIntyre strain); type: cell-based
[3] = tested on: vesicular stomatitis virus (VSV); type: cell-based
[4] = tested on: pseudotyped VSV expressing LASV GPC (VSVΔLASV); type: cell-based

CC[C@H](C)[C@H](NC(=O)[C@H](CC(C)C)NC(=O)CNC(=O)[C@H](CC(N)=O)NC(=O)[C@@H](NC(=O)[C@@H](NC(=O)[C@H](CCCCN)NC(=O)[C@H](CCCCN)NC(=O)[C@H](Cc1ccccc1)NC(=O)[C@H](CC(C)C)NC(=O)[C@H](CC(N)=O)NC(=O)[C@@H](N)CC(C)C)[C@@H](C)O)[C@@H](C)CC)C(=O)N[C@@H](CO)C(=O)N[C@@H](CC(=O)O)C(=O)N[C@@H](CO)C(=O)N[C@@H](CC(C)C)C(=O)N[C@H](C(=O)N[C@H](C(=O)N[C@@H](CCCNC(=N)N)C(=O)O)[C@@H](C)CC)C(C)C [Peptide 1]
effect on viral infectivity (PICV): no significant antiviral activity or increase in viral infectivity was observed
effect on viral infectivity (plaque number) (PICV): no increase in plaque number was observed
inhibition of plaque formation (measles virus (MV)): not significantly inhibited
dequenching of PICV pre-incubated at pH 5.0 prior to labeling (R18-labeled PICV; pH 5): did not induce significant dequenching
dequenching of R18-labeled virus (R18-labeled PICV; pH 7.4): extensive dequenching
plaque reduction (Tamiami virus (TAMV)): 45.0±5.0%
presence of pre-fusion glycoprotein spikes (cryo-EM) (Purified PICV): Disappearance of pre-fusion glycoprotein spikes was also observed in a significant number of particles
size distribution of viral particles (cryo-EM) (Purified PICV): greater shift toward larger particles
DPH anisotropy [1]: Concentration-dependent increases in probe anisotropy values were observed to a greater degree with Peptide 1 than with Peptide 8
TMA-DPH anisotropy [1]: increased substantially
inhibition of plaque formation [2]: not significantly inhibited
peptide concentration giving complete inhibition of plaque formation (PICV (CoAn 3739)): approximately 20 μM
IC50 (PICV (CoAn 3739); 1 h): 7.05 ± 2.19 µM
inhibition of plaque formation [3]: not significantly inhibited
plaque reduction [4]: 63.8±13.0%

PGGYALEQWAIIWAGIKAF [Peptide 8]
DPH anisotropy [1]: purely incidental alterations in acyl chain packing
